Assay results published in patent US20020137929A1, “1 - (3-heterocyclylphenyl) isothiourea, -isourea, -guanidine and -amidine herbicidal agents” (Intellectual Property Department, BASF Aktiengesellschaft, priority 1998, published 2002).

Key:
[1] = system: SETVI (Foxtail, Green); experiment: Postemergence herbicidal evaluation; type: in vivo, Setaria viridis
How it was run: (§1)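 Two-week-old seedlings sprayed with compound in 50/50 acetone/water plus 0.5% TWEEN 20, at about 0.0156 to 0.500 kg/ha, nozzle at 40 psi. Kept in greenhouse; rated visually 4-5 weeks after treatment on a 0-9 scale versus control, repeat tests averaged.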

[2] = system: TRZAWR (Wheat, Winter, cv Riband); experiment: Postemergence herbicidal evaluation; type: in vivo, Triticum aestivum
How it was run: as §1

[3] = system: AMBEL (Ragweed, Common); experiment: Postemergence herbicidal evaluation; type: in vivo, Ambrosia artemisifolia
How it was run: as §1

[4] = system: ECHCG (Barnyardgrass); experiment: Preemergence herbicidal evaluation; type: in vivo, Echinochloa crus-galli; settings: rated 4-5 weeks after treatment
How it was run: (§2)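 Scores use a 0–9 visual scale covering stand, vigor, malformation, size and chlorosis relative to controls, rated four to five weeks after treatment. Before emergence, soil-planted seeds were sprayed with compound in aqueous acetone at roughly 0.0156–0.500 kg/ha and held in the greenhouse.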

[5] = system: CASOB (Sicklepod); experiment: Preemergence herbicidal evaluation; type: in vivo, Cassia obtusifolia; settings: rated 4-5 weeks after treatment
How it was run: as §2

[6] = system: GLXMAW (Soybean, Williams); experiment: Postemergence herbicidal evaluation; type: in vivo, Glycine max, (L.) Merr. cv Williams
How it was run: as §1

[7] = system: CHEAL (Lambsquarters, Common); experiment: Preemergence herbicidal evaluation; type: in vivo, Chenopodium album; settings: rated 4-5 weeks after treatment
How it was run: as §2

[8] = system: ECHCG (Barnyardgrass); experiment: Postemergence herbicidal evaluation; type: in vivo, Echinochloa crus-galli
How it was run: as §1

[9] = system: GALAP (Galium); experiment: Preemergence herbicidal evaluation; type: in vivo, Galium aparine; settings: rated 4-5 weeks after treatment
How it was run: as §2

[10] = system: ECHORC (Watergrass (Calif.)); experiment: Postemergence weed control under flooded paddy conditions; type: in vivo, Echinochloa oryzoides; settings: postemergence weeds
How it was run: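 Herbicidal effect is judged by eye on a 0–9 scale versus control, 3–4 weeks after dosing. Dosing is into flood water kept 1.5–3 cm over the soil, at about 0.0313–0.500 kg/ha in aqueous/acetone 50/50 v/v, on 3–5 cm weeds and 1.5–2.5-leaf rice seedlings.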

[11] = system: IPOHE (Morningglory, Ivyleaf); experiment: Preemergence herbicidal evaluation; type: in vivo, Ipomoea hederacea; settings: rated 4-5 weeks after treatment
How it was run: as §2

[12] = system: ABUTH (Velvetleaf); experiment: Postemergence herbicidal evaluation; type: in vivo, Abutilon theophrasti
How it was run: as §1

[13] = system: IPOHE (Morningglory, Ivyleaf); experiment: Postemergence herbicidal evaluation; type: in vivo, Ipomoea hederacea
How it was run: as §1

[14] = system: ZEAMX (Corn, Field); experiment: Preemergence herbicidal evaluation; type: in vivo, Zea mays; settings: rated 4-5 weeks after treatment
How it was run: as §2

CCOC(=O)CN1C(=O)C(CC(=O)OC)S/C1=N/c1cc(-n2c(=O)cc(C(F)(F)F)n(C)c2=O)c(F)cc1Cl (stereo not shown) [Compound 54, 2-{{2-Chloro-5-[3,6-dihydro-3-methyl-2,6-dioxo-4-(trifluoromethyl)-1(2H)-pyrimidinyl]-4-fluorophenyl}imino}-4-oxo-3,5-thiazolidinediacetic acid, 3-ethyl methyl ester]
1.5: Preemergence herbicidal rating IPOHE ([11]; rate 0.0156 kg/ha)
6.0: Preemergence herbicidal rating CASOB ([5]; rate 0.2500 kg/ha) | Preemergence herbicidal rating IPOHE ([11]; rate 0.0313 kg/ha)
2.0: Preemergence herbicidal rating ECHCG ([4]; rate 0.1250 kg/ha) | Preemergence herbicidal rating ZEAMX ([14]; rate 0.1250 kg/ha)
3.0: Preemergence herbicidal rating ZEAMX ([14]; rate 0.5000 kg/ha)
5.0: Postemergence herbicidal rating TRZAWR ([2]; Rate 0.0158 kg/ha) | Preemergence herbicidal rating ECHCG ([4]; rate 0.2500 kg/ha) | Herbicidal rating ECHORC ([10]; rate 0.0313 kg/ha, 3-4 weeks after treatment) | Herbicidal rating ECHORC ([10]; rate 0.0625 kg/ha, 3-4 weeks after treatment)
4.0: Preemergence herbicidal rating ZEAMX ([14]; rate 0.2500 kg/ha)
0.0: Preemergence herbicidal rating ECHCG ([4]; rate 0.0156 kg/ha) | Preemergence herbicidal rating ECHCG ([4]; rate 0.0313 kg/ha) | Preemergence herbicidal rating ECHCG ([4]; rate 0.0625 kg/ha) | Preemergence herbicidal rating CASOB ([5]; rate 0.0156 kg/ha) | Preemergence herbicidal rating CASOB ([5]; rate 0.0313 kg/ha) | Preemergence herbicidal rating CASOB ([5]; rate 0.0625 kg/ha) | Preemergence herbicidal rating GALAP ([9]; rate 0.0156 kg/ha) | Preemergence herbicidal rating GALAP ([9]; rate 0.0313 kg/ha) | Preemergence herbicidal rating GALAP ([9]; rate 0.0625 kg/ha) | Preemergence herbicidal rating ZEAMX ([14]; rate 0.0156 kg/ha)
7.5: Preemergence herbicidal rating IPOHE ([11]; rate 0.1250 kg/ha)
1.0: Preemergence herbicidal rating ZEAMX ([14]; rate 0.0313 kg/ha) | Preemergence herbicidal rating ZEAMX ([14]; rate 0.0625 kg/ha)
9.0: Postemergence herbicidal rating SETVI ([1]; Rate 0.0158 kg/ha) | Postemergence herbicidal rating SETVI ([1]; Rate 0.0315 kg/ha) | Postemergence herbicidal rating SETVI ([1]; Rate 0.0630 kg/ha) | Postemergence herbicidal rating TRZAWR ([2]; Rate 0.0630 kg/ha) | Postemergence herbicidal rating AMBEL ([3]; Rate 0.0158 kg/ha) | Postemergence herbicidal rating AMBEL ([3]; Rate 0.0315 kg/ha) | Postemergence herbicidal rating AMBEL ([3]; Rate 0.0630 kg/ha) | Preemergence herbicidal rating ECHCG ([4]; rate 0.5000 kg/ha) | Preemergence herbicidal rating CASOB ([5]; rate 0.5000 kg/ha) | Postemergence herbicidal rating GLXMAW ([6]; Rate 0.0158 kg/ha) | Postemergence herbicidal rating GLXMAW ([6]; Rate 0.0315 kg/ha) | Postemergence herbicidal rating GLXMAW ([6]; Rate 0.0630 kg/ha) | Preemergence herbicidal rating CHEAL ([7]; rate 0.0313 kg/ha) | Preemergence herbicidal rating CHEAL ([7]; rate 0.0625 kg/ha) | Preemergence herbicidal rating CHEAL ([7]; rate 0.1250 kg/ha) | Preemergence herbicidal rating CHEAL ([7]; rate 0.2500 kg/ha) | Preemergence herbicidal rating CHEAL ([7]; rate 0.5000 kg/ha) | Postemergence herbicidal rating ECHCG ([8]; Rate 0.0158 kg/ha) | Postemergence herbicidal rating ECHCG ([8]; Rate 0.0315 kg/ha) | Postemergence herbicidal rating ECHCG ([8]; Rate 0.0630 kg/ha) | Preemergence herbicidal rating GALAP ([9]; rate 0.1250 kg/ha) | Preemergence herbicidal rating GALAP ([9]; rate 0.2500 kg/ha) | Herbicidal rating ECHORC ([10]; rate 0.2500 kg/ha, 3-4 weeks after treatment) | Preemergence herbicidal rating IPOHE ([11]; rate 0.0625 kg/ha) | Preemergence herbicidal rating IPOHE ([11]; rate 0.2500 kg/ha) | Preemergence herbicidal rating IPOHE ([11]; rate 0.5000 kg/ha) | Postemergence herbicidal rating ABUTH ([12]; Rate 0.0158 kg/ha) | Postemergence herbicidal rating ABUTH ([12]; Rate 0.0315 kg/ha) | Postemergence herbicidal rating ABUTH ([12]; Rate 0.0630 kg/ha) | Postemergence herbicidal rating IPOHE ([13]; Rate 0.0158 kg/ha) | Postemergence herbicidal rating IPOHE ([13]; Rate 0.0315 kg/ha) | Postemergence herbicidal rating IPOHE ([13]; Rate 0.0630 kg/ha)
7.0: Postemergence herbicidal rating TRZAWR ([2]; Rate 0.0315 kg/ha) | Herbicidal rating ECHORC ([10]; rate 0.1250 kg/ha, 3-4 weeks after treatment)
4.5: Preemergence herbicidal rating CASOB ([5]; rate 0.1250 kg/ha) | Preemergence herbicidal rating CHEAL ([7]; rate 0.0156 kg/ha)

Cn1c(C(F)(F)F)cc(=O)n(-c2cc(/N=C3/SC(CC(=O)O)C(=O)N3CC(=O)O)c(Cl)cc2F)c1=O (stereo not shown) [Compound 61, 2-{{2-Chloro-5-[3,6-dihydro-3-methyl-2,6-dioxo-4-(trifluoromethyl)-1(2H)-pyrimidinyl]-4-fluorophenyl}imino}-4-oxo-3,5-thiazolidinediacetic acid]
9.0: Preemergence herbicidal rating CHEAL ([7]; rate 0.2500 kg/ha)
1.5: Postemergence herbicidal rating TRZAWR ([2]; Rate 0.0630 kg/ha)
1.0: Preemergence herbicidal rating CASOB ([5]; rate 0.2500 kg/ha) | Postemergence herbicidal rating IPOHE ([13]; Rate 0.0158 kg/ha) | Postemergence herbicidal rating IPOHE ([13]; Rate 0.0630 kg/ha) | Preemergence herbicidal rating ZEAMX ([14]; rate 0.2500 kg/ha)
0.5: Postemergence herbicidal rating TRZAWR ([2]; Rate 0.0158 kg/ha) | Postemergence herbicidal rating TRZAWR ([2]; Rate 0.0315 kg/ha)
2.0: Postemergence herbicidal rating SETVI ([1]; Rate 0.0630 kg/ha) | Postemergence herbicidal rating GLXMAW ([6]; Rate 0.0158 kg/ha) | Postemergence herbicidal rating IPOHE ([13]; Rate 0.0315 kg/ha)
7.0: Preemergence herbicidal rating CHEAL ([7]; rate 0.1250 kg/ha)
3.0: Postemergence herbicidal rating GLXMAW ([6]; Rate 0.0315 kg/ha)
0.0: Postemergence herbicidal rating SETVI ([1]; Rate 0.0158 kg/ha) | Postemergence herbicidal rating SETVI ([1]; Rate 0.0315 kg/ha) | Postemergence herbicidal rating AMBEL ([3]; Rate 0.0158 kg/ha) | Postemergence herbicidal rating AMBEL ([3]; Rate 0.0315 kg/ha) | Postemergence herbicidal rating AMBEL ([3]; Rate 0.0630 kg/ha) | Preemergence herbicidal rating ECHCG ([4]; rate 0.1250 kg/ha) | Preemergence herbicidal rating ECHCG ([4]; rate 0.2500 kg/ha) | Preemergence herbicidal rating CASOB ([5]; rate 0.1250 kg/ha) | Postemergence herbicidal rating ECHCG ([8]; Rate 0.0158 kg/ha) | Postemergence herbicidal rating ECHCG ([8]; Rate 0.0315 kg/ha) | Postemergence herbicidal rating ECHCG ([8]; Rate 0.0630 kg/ha) | Preemergence herbicidal rating GALAP ([9]; rate 0.1250 kg/ha) | Preemergence herbicidal rating GALAP ([9]; rate 0.2500 kg/ha) | Herbicidal rating ECHORC ([10]; Rate 0.2500 kg/ha, rated 3 to 4 weeks after treatment) | Preemergence herbicidal rating IPOHE ([11]; rate 0.1250 kg/ha) | Preemergence herbicidal rating IPOHE ([11]; rate 0.2500 kg/ha) | Postemergence herbicidal rating ABUTH ([12]; Rate 0.0158 kg/ha) | Postemergence herbicidal rating ABUTH ([12]; Rate 0.0315 kg/ha) | Postemergence herbicidal rating ABUTH ([12]; Rate 0.0630 kg/ha) | Preemergence herbicidal rating ZEAMX ([14]; rate 0.1250 kg/ha)
4.0: Postemergence herbicidal rating GLXMAW ([6]; Rate 0.0630 kg/ha)
